Results from US20090312286A1, “DERIVATIVES OF 4-TRIMETHYLAMMONIUM-3-AMINOBUTYRATE AND 4-TRIMETHYLPHOSPHONIUM-3-AMINOBUTYRATE AS CPT-INHIBITORS” (SIGMA-TAU INDUSTRIE FARMACEUTICHE RIUNITE S.P.A., priority 2006, published 2009).
pIC50: −log10 of the molar value. Each block holds one molecule with its values, some of them ahead of it.

Experiments:
[1] = system: db/db mice; assay: Antihyperglycemic activity in db/db mice; format: in vivo, mouse; details: vs control
Procedure: ST2425 and ST2452 were administered to db/db mice for 12 days at 30 mg/kg/day, using ST1326 at a higher dose (80 mg/kg/day) as reference compound. At the end of the treatment, serum glucose levels were evaluated after 16 hours fasting and 2 hours from last administration.

[2] = biological target: T1, CPT1 in rat mitochondria (heart) (Rattus norvegicus, UniProt Q63704); assay: In vitro inhibition of CPT I, rat heart mitochondria; format: biochemical; details: CPT1, heart mitochondria of Fischer rats, 50 μM palmitoyl-CoA, 10 mM L-carnitine, 37° C., 1 minute
T1 construct: fresh mitochondrial preparations obtained from the liver or heart of Fischer rats; from tissue; host or cells: rat heart mitochondria (Fischer rats)
T1 sequence (Q63704 1-772): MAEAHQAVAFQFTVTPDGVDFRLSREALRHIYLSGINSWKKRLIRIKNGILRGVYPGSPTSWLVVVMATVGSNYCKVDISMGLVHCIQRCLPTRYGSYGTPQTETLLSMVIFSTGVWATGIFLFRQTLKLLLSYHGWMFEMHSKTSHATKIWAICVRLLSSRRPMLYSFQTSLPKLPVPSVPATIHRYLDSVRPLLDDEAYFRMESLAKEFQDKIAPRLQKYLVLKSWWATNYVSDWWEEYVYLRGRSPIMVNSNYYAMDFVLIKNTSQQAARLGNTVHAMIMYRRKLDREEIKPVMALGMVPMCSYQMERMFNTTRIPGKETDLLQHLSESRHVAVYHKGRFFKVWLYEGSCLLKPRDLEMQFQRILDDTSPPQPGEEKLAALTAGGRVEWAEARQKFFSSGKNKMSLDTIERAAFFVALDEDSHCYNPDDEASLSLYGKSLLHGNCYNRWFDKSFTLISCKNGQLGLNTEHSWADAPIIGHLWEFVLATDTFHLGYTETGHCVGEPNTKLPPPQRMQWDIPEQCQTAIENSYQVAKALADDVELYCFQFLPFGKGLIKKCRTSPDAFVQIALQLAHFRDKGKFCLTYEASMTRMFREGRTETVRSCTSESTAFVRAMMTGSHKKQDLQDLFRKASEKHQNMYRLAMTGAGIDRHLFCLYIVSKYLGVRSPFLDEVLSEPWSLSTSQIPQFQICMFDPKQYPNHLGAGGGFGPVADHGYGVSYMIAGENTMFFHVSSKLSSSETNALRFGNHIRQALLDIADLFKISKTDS
Procedure: The inhibition of CPT was evaluated on fresh mitochondrial preparations obtained from the liver or heart of Fischer rats, fed normally; the mitochondria taken from the liver or heart are suspended in a 75 mM sucrose buffer, EGTA 1 mM, pH 7.5. 100 μl of a mitochondrial suspension, containing 50 μM of [^14C] palmitoyl-CoA (spec.act. 10000 dpm/mole) and 10 mM of L-carnitine, are incubated at 37° C. in the presence of stepped concentrations (0-3 mM) of product under examination.
(§1) The IC50 is then determined.

[3] = biological target: T2, CPT1 in rat mitochondria (liver) (Rattus norvegicus, UniProt P32198); assay: In vitro inhibition of CPT I, rat liver mitochondria; format: biochemical; details: for pIC50: CPT1, liver mitochondria of Fischer rats, 50 μM palmitoyl-CoA, 10 mM L-carnitine, 37° C., 1 minute; for Ratio: IC50 (heart) / IC50 (liver)
T2 construct: fresh mitochondrial preparations obtained from the liver or heart of Fischer rats; from tissue; host or cells: rat liver mitochondria (Fischer rats)
T2 sequence (P32198 1-773): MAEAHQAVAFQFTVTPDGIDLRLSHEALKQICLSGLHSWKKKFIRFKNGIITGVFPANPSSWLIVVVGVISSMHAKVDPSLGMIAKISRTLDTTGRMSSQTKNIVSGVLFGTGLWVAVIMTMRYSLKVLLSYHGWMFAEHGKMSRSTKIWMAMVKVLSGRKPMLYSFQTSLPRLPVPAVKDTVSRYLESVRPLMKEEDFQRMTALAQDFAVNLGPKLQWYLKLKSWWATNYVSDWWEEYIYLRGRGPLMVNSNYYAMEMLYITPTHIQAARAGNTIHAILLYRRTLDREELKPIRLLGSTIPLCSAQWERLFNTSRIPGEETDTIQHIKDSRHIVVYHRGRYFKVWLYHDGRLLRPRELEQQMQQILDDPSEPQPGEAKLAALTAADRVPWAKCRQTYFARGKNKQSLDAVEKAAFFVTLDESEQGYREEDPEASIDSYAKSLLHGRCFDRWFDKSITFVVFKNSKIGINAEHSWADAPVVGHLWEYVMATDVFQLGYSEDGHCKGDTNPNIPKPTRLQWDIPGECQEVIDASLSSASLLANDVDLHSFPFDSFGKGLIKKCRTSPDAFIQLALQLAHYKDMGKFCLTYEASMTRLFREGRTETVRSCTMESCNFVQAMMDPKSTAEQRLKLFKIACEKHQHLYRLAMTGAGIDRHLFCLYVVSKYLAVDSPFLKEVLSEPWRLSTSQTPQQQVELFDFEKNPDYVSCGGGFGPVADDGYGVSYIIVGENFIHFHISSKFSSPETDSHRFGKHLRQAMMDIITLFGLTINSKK
Procedure: 100 μl of a mitochondrial suspension, containing 50 μM of [^14C] palmitoyl-CoA (spec.act. 10000 dpm/mole) and 10 mM of L-carnitine, are incubated at 37° C. in the presence of stepped concentrations (0-3 mM) of product under examination.
as §1

[4] = system: β-hydroxybutyrate production; assay: Inhibition of ketone bodies production in vivo in fasted rats; design: species or system rat; details: for reduction of β-hydroxybutyrate levels / time to reach minimum β-hydroxybutyrate values: rats fasted 17 hours; for reduction of β-hydroxybutyrate levels: single oral dose equimolar to 10 mg/Kg of ST1326, measured at 3 and 6 hours; for time to reach minimum β-hydroxybutyrate values: single oral dose equimolar to 10 mg/Kg of ST1326, values stable for additional 3 hours; for ED50: Rattus norvegicus, single oral treatment, calculated on AUC of β-hydroxybutyrate from time 0 to 9 hours
Procedure: The compounds were administered per os at 9:00 after 17 hours of fasting (n=5) at doses equimolar to 10 mg/kg of ST1326, which is used as reference compound.
The inhibition of CPT and consequently of β-hydroxybutyrate production operated by ST2425 and ST2452 was evaluated in vivo in rats fasted from 17 hours, at doses equimolar to 10 mg/Kg of ST1326 used as reference compound. β-hydroxybutyrate levels were measured at 3 and 6 hours from single oral treatment.
For compound ST2425, inhibition of ketone bodies production was also evaluated at the dosages of 0, 1, 3, 7, 10 mg/kg in rats fasted for 16 hours, following the reduction of β-hydroxybutyrate for 9 hours after single oral treatment.

[5] = system: C57BL/6J mice; assay: Effect on food intake and body weight of repeated intracerebroventricular administration; format: in vivo, mouse; details: for Mice weight / 24 hours food intake: C57BL6/J mice, Mean ± S.D.
Procedure: Two groups of 8 C57BL/6J mice each (ST2425 and Control) were injected icv (3 μL) with 250 pmoles (0.113 μg) of ST2425 dissolved in RPMI 1640 (vehicle), for 4 days (starting from day 0). The animals were slightly confused by isofluorane anestesia. The head was positioned in an apparatus used to reveal a “virtual bregma” without opening the skin. The injection was performed with a syringe at 3.5 mm of depth, using the following coordinates from Bregma: 1 mm on the left of the midsagittal suture and 3 mm posterior (lateral ventricle). The animals were treated at 5:00 p.m. and food intake was monitored at 8:00 a.m. of the day after. Starting from the day after the first treatment, food was removed from 8:00 a.m. to 5:00 p.m.
Statistical analysis was performed using two way repeated measures ANOVA followed by Student, Newman, Keuls test as post-hoc analysis.

[6] = system: Sprague Dawley rats; assay: Effect on food intake of intranasal administration in normal rats; format: in vivo; details: intranasal 320 μg/40 μL/rat for 3 days, starting from the day after the second treatment, FIG. 3
Procedure: FIG. 3 reports the food intake (expressed as g/kg b.w.) in Sprague Dawley rats, treated intranasally for 3 days with ST2425 (320 μg/40 μl/rat) equally subdivided in the two nostrils. (Mean±S.D. (n=5). One way ANOVA post-hoc test SNK *p≦0.05 vs Control)
To test the activity on food consumption of the compounds of the present invention after intranasal administration, ST2425 was given to normally-fed Sprague Dawley rats (320 μg/40 μL/rat, in citrate buffer 10 mmol/L pH 5.0, equally subdivided into the two nostrils) 2 h before the dark cycle. The compound was administered for 3 days (starting from day 0) and food consumption was measured every time for the following 24 h. Five rats were considered for each group.

[7] = day 1, icv 250 pmoles for 4 days
[8] = day 2, icv 250 pmoles for 4 days
[9] = day 3, icv 250 pmoles for 4 days
[10] = day 4, icv 250 pmoles for 4 days
[11] = days 3 and 4, statistically significant
[12] = over the experiment, icv 250 pmoles for 4 days

pIC50 [2]: 4.24
pIC50 [3]: 6.92
Ratio [3]: 478
Structure (SMILES): CCCCCCOc1cccc(OCCCCNC(=O)N[C@H](CC(=O)[O-])C[P+](C)(C)C)c1 [ST2452, (R)-4-trimethylphosphonium-3-[[4-[(3-hexyloxy)phenoxy]butyl]carbamoyl]-amino-butyrate]
reduction of glucose levels ([1]; 30 mg/kg/day for 12 days): 30%
reduction of β-hydroxybutyrate levels [4]: higher and faster with respect to ST1326
time to reach minimum β-hydroxybutyrate values [4]: 3 h

Ratio [3]: 135
Structure (SMILES): CCCCCCCCCCCCCCNC(=O)N[C@H](CC(=O)[O-])C[N+](C)(C)C [ST1326, R-4-trimethyl ammonium-3-(tetradecylcarbamoyl)-aminobutyrate, reference compound]
reduction of glucose levels ([1]; 80 mg/kg/day for 12 days): 26%
ED50 ([4]; rats fasted 16 hours): 14.5 mg/kg

pIC50 [2]: 4.50
pIC50 [3]: 6.57
Ratio [3]: 117
Structure (SMILES): CCCCCCOc1cccc(OCCCCNC(=O)N[C@H](CC(=O)[O-])C[N+](C)(C)C)c1 [ST2425, (R)-4-trimethylammonium-3-[[4-[(3-hexyloxy)-phenoxy]butyl]carbamoyl]-amino-butyrate]
reduction of glucose levels ([1]; 30 mg/kg/day for 12 days): 41%
Mice weight ([5]; day 0, icv 250 pmoles for 4 days): 22.2 ± 0.91 g
24 hours food intake [5, 7]: 3.15 ± 0.61 g
Mice weight [5, 7]: 21.2 ± 0.96 g
24 hours food intake [5, 8]: 3.31 ± 0.70 g
Mice weight [5, 8]: 20.5 ± 1.14 g
change of mice weight ([5]; day 2, statistically significant): −5%
24 hours food intake [5, 9]: 3.35 ± 0.73 g
Mice weight [5, 9]: 20.0 ± 0.69 g
24 hours food intake [5, 10]: 3.55 ± 0.63 g
Mice weight [5, 10]: 20.1 ± 0.64 g
change of mice weight [5, 11]: −10%
reduction of food intake [5, 11]: about 30%
change of food consumption with respect to the control group [5, 12]: −25%
change of mice weight with respect to the control group [5, 12]: −7%
food consumption with respect to controls [6]: significant reduction of food consumption
ED50 ([4]; rats fasted 16 hours): 3.7 mg/kg
effect on ketone bodies levels, dose relation ([4]; fasted rats, FIG. 2): dose-related effect
onset of action on ketone bodies levels ([4]; rats fasted 16 hours, single oral treatment 1-10 mg/kg, FIG. 2): faster onset of action
reduction of β-hydroxybutyrate levels [4]: higher and faster with respect to ST1326
time to reach minimum β-hydroxybutyrate values [4]: 3 h
